≈ marks a conversion by molar mass, not a printed value. Where a name gives a salt, the structure may show the parent alone.
Legend:
[1] = biological target: T1, Nav1.7 (or SCN9A) channel (Homo sapiens, UniProt Q15858); test: Nav1.7 (hSCN9A) channel block, PatchXpress (PX) whole-cell electrophysiology in stably transfected HEK cells; assay type: cell-based; conditions: for IC50: estimated IC50 from single point electrophysiology data, PatchXpress platform, HEK cells expressing hSCN9A, clamped at V1/2 of inactivation, read-out: Nav1.7 EIC50
T1 construct: expressed in transfected cells
T1 sequence (Q15858 whole entry): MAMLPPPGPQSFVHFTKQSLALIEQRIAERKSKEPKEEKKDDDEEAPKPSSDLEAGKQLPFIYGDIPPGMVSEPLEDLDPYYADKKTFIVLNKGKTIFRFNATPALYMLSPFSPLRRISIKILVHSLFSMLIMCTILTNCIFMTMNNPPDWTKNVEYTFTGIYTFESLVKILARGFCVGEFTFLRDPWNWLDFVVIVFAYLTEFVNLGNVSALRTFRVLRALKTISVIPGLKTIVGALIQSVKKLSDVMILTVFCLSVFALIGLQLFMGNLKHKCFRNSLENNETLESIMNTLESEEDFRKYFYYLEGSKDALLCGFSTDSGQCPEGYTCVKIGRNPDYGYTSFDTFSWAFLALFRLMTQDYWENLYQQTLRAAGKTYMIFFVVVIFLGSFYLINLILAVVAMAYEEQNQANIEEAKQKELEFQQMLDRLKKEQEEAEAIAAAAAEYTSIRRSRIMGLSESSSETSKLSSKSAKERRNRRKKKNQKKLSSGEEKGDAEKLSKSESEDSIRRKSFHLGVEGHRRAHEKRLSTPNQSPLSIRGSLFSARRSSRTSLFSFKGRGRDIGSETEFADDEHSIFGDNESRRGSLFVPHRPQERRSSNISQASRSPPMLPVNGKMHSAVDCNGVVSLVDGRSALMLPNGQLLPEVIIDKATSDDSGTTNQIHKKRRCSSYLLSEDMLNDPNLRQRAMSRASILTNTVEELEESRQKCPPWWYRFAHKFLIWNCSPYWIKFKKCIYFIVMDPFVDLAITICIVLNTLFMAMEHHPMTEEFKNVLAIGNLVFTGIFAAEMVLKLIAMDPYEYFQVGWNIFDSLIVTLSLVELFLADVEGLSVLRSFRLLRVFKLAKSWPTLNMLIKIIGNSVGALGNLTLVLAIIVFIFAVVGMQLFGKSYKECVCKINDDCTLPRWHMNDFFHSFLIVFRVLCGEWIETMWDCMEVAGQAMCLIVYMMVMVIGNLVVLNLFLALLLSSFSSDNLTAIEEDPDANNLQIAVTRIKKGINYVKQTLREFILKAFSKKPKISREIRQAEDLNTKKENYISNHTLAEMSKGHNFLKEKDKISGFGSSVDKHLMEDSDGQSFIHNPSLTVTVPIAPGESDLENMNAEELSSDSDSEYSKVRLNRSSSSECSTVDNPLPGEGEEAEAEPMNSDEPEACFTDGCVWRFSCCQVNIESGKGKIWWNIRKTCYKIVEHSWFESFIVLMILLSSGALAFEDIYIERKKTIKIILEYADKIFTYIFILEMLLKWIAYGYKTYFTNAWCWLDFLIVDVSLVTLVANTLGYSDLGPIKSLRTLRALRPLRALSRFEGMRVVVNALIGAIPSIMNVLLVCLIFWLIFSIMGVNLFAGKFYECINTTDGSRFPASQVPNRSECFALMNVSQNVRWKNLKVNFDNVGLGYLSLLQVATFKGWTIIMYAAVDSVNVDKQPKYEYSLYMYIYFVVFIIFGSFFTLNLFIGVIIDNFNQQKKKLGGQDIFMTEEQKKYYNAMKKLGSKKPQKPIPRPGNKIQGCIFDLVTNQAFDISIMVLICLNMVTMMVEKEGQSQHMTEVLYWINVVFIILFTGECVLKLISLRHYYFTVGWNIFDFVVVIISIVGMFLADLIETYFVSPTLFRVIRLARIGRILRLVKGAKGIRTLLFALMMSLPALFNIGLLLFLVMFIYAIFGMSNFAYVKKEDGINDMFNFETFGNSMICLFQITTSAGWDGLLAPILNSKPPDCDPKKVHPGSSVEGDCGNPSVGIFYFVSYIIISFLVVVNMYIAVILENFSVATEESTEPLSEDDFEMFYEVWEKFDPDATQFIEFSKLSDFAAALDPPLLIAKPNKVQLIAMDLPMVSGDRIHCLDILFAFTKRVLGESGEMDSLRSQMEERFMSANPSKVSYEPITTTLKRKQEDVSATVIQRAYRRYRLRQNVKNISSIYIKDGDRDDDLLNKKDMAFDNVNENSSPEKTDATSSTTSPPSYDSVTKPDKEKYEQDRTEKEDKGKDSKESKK
Protocol: The ability of the compounds of formula (I) to block the Nav1.7 (or SCN9A) channel was measured using the assay described below.
Human Embryonic Kidney (HEK) cells were transfected with an hSCN9A construct using lipofectamine reagent (Invitrogen), using standard techniques. Cells stably expressing the hSCN9A constructs were identified by their resistance to G-418 (400 μg/ml). Clones were screened for expression using the whole-cell voltage-clamp technique.
HEK cells stably transfected with hSCN9A were maintained in DMEM medium supplemented with 10% heat-inactivated fetal bovine serum and 400 μg/ml G-418 in an incubator at 37° C. with a humidified atmosphere of 10% CO2. For HTS, cells were harvested from flasks by trypsinization and replated in an appropriate multi-well plate (typically 96 or 384 wells/plate) such that confluence would be achieved within 24 hours of plating. Cells were typically used for electrophysiological experiments within 24 to 72 hours after plating.
For conventional whole-cell voltage clamp experiments cells were removed from the culture flask by brief trypsinization and re-plated at low density onto glass cover slips. Cover slips containing HEK cells expressing hSCN9A were placed in a bath on the stage of an inverted microscope and perfused (approximately 1 ml/minutes) with extracellular solution of the following composition: 138 mM NaCl, 2 mM CaCl2, 5.4 mM KCl, 1 mM MgCl2, 10 mM glucose, and 10 mM HEPES, pH 7.4, with NaOH. […] The osmolarity of the extracellular and intracellular solutions was 300 mOsm/kg and 295 mOsm/kg, respectively. All recordings were made at room temperature (22-24° C.) using AXOPATCH 200B amplifiers and PCLAMP software (Axon Instruments, Burlingame, Calif.). hSCN9A currents in HEK cells were measured using the whole-cell configuration of the patch-clamp technique (Hamill et al., 1981). Uncompensated series resistance was typically 2 to 5 mega ohms and >85% series resistance compensation was routinely achieved. […] Current records were acquired at 20 to 50 KHz and filtered at 5 to 10 KHz.
HEK cells stably transfected with hSCN9A were viewed under Hoffman contrast optics and placed in front of an array of flow pipes emitting either control or compound-containing extracellular solutions.
The voltage-dependence of inactivation was determined by applying a series of depolarizing prepulses (8 sec long in 10 mV increments) from a negative holding potential. The voltage was then immediately stepped to 0 mV to assess the magnitude of the sodium current. Currents elicited at 0 mV were plotted as a function of prepulse potential to allow estimation of the voltage at which 50% of the channels were inactivated (midpoint of inactivation or V1/2). Compounds were tested for their ability to inhibit hSCN9A sodium channels by activating the channel with a 20 msec voltage step […] to 0 mV following an 8 second conditioning prepulse to the empirically determined V1/2. Compound effect (% inhibition) was determined by difference in current amplitude before and after application of test compounds. For ease of comparison, “estimated IC-50” (EIC50) values were calculated from single point electrophysiology data by the following equation, (tested concentration, nM)×(100-% inhibition/% inhibition). Inhibition values <20% and >80% were excluded from the calculation.
Electrophysiological assays were conducted with PatchXpress 7000 hardware and associated software (Molecular Devices Corp). All assay buffers and solutions were identical to those used in conventional whole-cell voltage clamp experiments described above. hSCN9A cells were grown as above to 50%-80% confluency and harvested by trypsinization. Trypsinized cells were washed and resuspended in extracellular buffer at a concentration of 1×10^6 cells/ml. The onboard liquid handling facility of the PatchXpress was used for dispensing cells and application of test compounds.

[2] = Aqueous solubility, shake-flask method; assay type: physicochemical; conditions: aqueous buffer, thermodynamic from solid
Protocol: Aqueous solubility data were generated via a “shake-flask” method where an excess of compound was added to a buffer (typically phosphate buffered saline at pH 7.4) and shaken for a period of 18 hours at room temperature. After this time any excess solid was removed by double centrifugation to obtain a saturated aqueous solution. The amount of compound solubilised was quantified by HPLC-UV or LC-MS against a standard calibration curve.
The solubility data generated are set out below. Where a greater than figure is quoted, all available compound was solubilised and saturation was not achieved in the conditions employed.

[3] = pH 7.5, shaken 18 hours at room temperature

| SMILES | IC50 [1] | solubility at 18 h [2, 3] | further results |
| --- | --- | --- | --- |
| COCCOCCOCCOCCO[C@@H]1CCN(Cc2cc(-c3cc(-c4cccc(C(F)(F)F)c4)ccc3Oc3ccc(S(=O)(=O)Nc4ncns4)cc3C#N)ccn2)C1 [Example 21, (R)-4-((3-(2-((3-((2,5,8,11-tetraoxatridecan-13-yl)oxy)pyrrolidin-1-yl)methyl)pyridin-4-yl)-3′-(trifluoromethyl)-[1,1′-biphenyl]-4-yl)oxy)-3-cyano-N-(1,2,4-thiadiazol-5-yl)benzenesulfonamide trifluoroacetate salt] | 7.9 nM | 56 µg/mL |  |
| COCCOCCOCCOCCOCCOCCOCCOCCOCCOCCOCCOCCC(=O)NCc1cc(-c2cc(-c3cccc(C(F)(F)F)c3)ccc2Oc2ccc(S(=O)(=O)Nc3ncns3)cc2C#N)ccn1 [Example 19, N-((4-(4-(4-(N-(1,2,4-thiadiazol-5-yl)sulfamoyl)-2-cyanophenoxy)-3′-(trifluoromethyl)-[1,1′-biphenyl]-3-yl)pyridin-2-yl)methyl)-2,5,8,11,14,17,20,23,26,29,32,35-dodecaoxaoctatriacontan-38-amide] | 17.5 nM | > 3 µg/mL |  |
| COCCOCCOCCOCCOCCOCCOCCOCCOCCOCCOCCOCCC(=O)N1CCC(CCNCc2cc(-c3cc(-c4cccc(C(F)(F)F)c4)ccc3Oc3ccc(S(=O)(=O)Nc4ncns4)cc3C#N)ccn2)CC1 [Example 17, 4-((3-(2-(((2-(1-(2,5,8,11,14,17,20,23,26,29,32,35-dodecaoxaoctatriacontan-38-oyl)piperidin-4-yl)ethyl)amino)methyl)pyridin-4-yl)-3′-(trifluoromethyl)-[1,1′-biphenyl]-4-yl)oxy)-3-cyano-N-(1,2,4-thiadiazol-5-yl)benzenesulfonamide] | < 10 nM |  | inhibition at 0.01 µM ([1]; HEK293, Nav1.7, PatchXpress, 10 nM, read-out: % inhibition at 10 nM dose): 87.4%; solubility at 18 h ([2]; pH 7.4, shaken 18 hours at room temperature): > 2300 µg/mL |

More lines, in order of falling IC50 [1], values ahead:

| IC50 [1] | solubility at 18 h [2, 3] | SMILES | further results |
| --- | --- | --- | --- |
| 2.9 nM |  | NCc1cc(-c2cc(-c3cccc(C(F)(F)F)c3)ccc2Oc2cc(F)c(S(=O)(=O)Nc3cscn3)cc2Cl)ccn1 [Example 29, 4-({3-[2-(aminomethyl)pyridin-4-yl]-3′-(trifluoromethyl)biphenyl-4-yl}oxy)-5-chloro-2-fluoro-N-(1,3-thiazol-4-yl)benzenesulfonamide dihydrochloride salt] | solubility at 18 h ([2]; pH 7.0, shaken 18 hours at room temperature): < 0.5 µg/mL |
| 2.1 nM | < 500 µg/mL | O=S(=O)(Nc1nncs1)c1cc(Cl)c(Oc2ccc(-c3cccc(C(F)(F)F)c3)cc2-c2ccnc(CNCCC3CCNCC3)c2)cc1F [Example 6, 5-Chloro-2-fluoro-4-{[3-(2-{[(2-piperidin-4-ylethyl)amino]methyl}pyridin-4-yl)-3′-(trifluoromethyl)biphenyl-4-yl]oxy}-N-1,3,4-thiadiazol-2-ylbenzenesulfonamide bis-formate salt] | solubility at 18 h ([2]; pH 5.0, shaken 18 hours at room temperature): > 2300 µg/mL |
| 1.5 nM |  | NCc1cc(-c2cc(-c3cccc(C(F)(F)F)c3)ccc2Oc2cc(F)c(S(=O)(=O)Nc3nncs3)cc2Cl)ccn1 [Example 7, 4-({3-[2-(Aminomethyl)pyridin-4-yl]-3′-(trifluoromethyl)biphenyl-4-yl}oxy)-5-chloro-2-fluoro-N-1,3,4-thiadiazol-2-ylbenzenesulfonamide bis-formate salt] | solubility at 18 h ([2]; pH 7.2, shaken 18 hours at room temperature): 0.5 µg/mL |
| 1 nM | 110 µg/mL (≈ 138 µM) | COCCOCCOCCOCCNCc1cc(-c2cc(-c3cccc(C(F)(F)F)c3)ccc2Oc2ccc(S(=O)(=O)Nc3ncns3)cc2C#N)ccn1 [Example 15, 4-((3-(2-(5,8,11,14-tetraoxa-2-azapentadecyl)pyridin-4-yl)-3′-(trifluoromethyl)-[1,1′-biphenyl]-4-yl)oxy)-3-cyano-N-(1,2,4-thiadiazol-5-yl)benzenesulfonamide] |  |
| 0.5 nM | 3 µg/mL | N#Cc1cc(S(=O)(=O)Nc2ncns2)ccc1Oc1ccc(-c2cccc(C(F)(F)F)c2)cc1-c1ccnc(CN)c1 [Example 26, 4-({3-[2-(Aminomethyl)pyridin-4-yl]-3′-(trifluoromethyl)biphenyl-4-yl}oxy)-3-cyano-N-1,2,4-thiadiazol-5-ylbenzenesulfonamide bis-formate salt] |  |

Source: US20170275275A1, “BENZENESULFONAMIDES USEFUL AS SODIUM CHANNEL INHIBITORS” (PFIZER INC., priority 2014, published 2017)
